In patent US20240165135A1, “COMPOSITIONS AND METHODS FOR THE TREATMENT OF CANCER” (The State of Israel, Ministry of Agriculture & Rural …, priority 2021, published 2024):

Tests used:
A172 cells = assay: Apoptosis assay, Annexin V-FITC and PI, FACS, A172; format: cell-based, Human; conditions: 48 hours, F4-SM 10 μg/mL, F5-SM 10 μg/mL, Doxo 0.5 μg/mL
Procedure: Apoptosis assay—Apoptosis for the A172 cell line was assessed using MEBCYTO Apoptosis Kit with Annexin V-FITC and PI (MBL, Enco, 4700). Staining was carried out according to manufacturer's instructions. In brief, cells were seeded in a 6-well TC plate, at a density of 4×10^5 cells in 2 mL of SFM per well. 24 hours following seeding, cells were treated with the indicated treatments in complete medium for 48 hours. Following incubation, cells were harvested using trypsin and centrifuged for 5 minutes at 1600 rpm. Cell pellets were resuspended and washed twice with 1 mL of PBS. The cells in each sample were resuspended in 85 μL of Annexin binding buffer. Cells were stained using 10 μL of Annexin V-FITC solution and 5 μL of propidium iodide (PI) working solution followed by incubation in the dark at room temperature for 15 minutes. Then 400 μL of Annexin V binding buffer was added to each tube and flow cytometry was performed using a Gallios flow cytometer (FACS). Cells were considered apoptotic if they were Annexin V+/PI− (early apoptosis) or Annexin V+/PI+ (late apoptosis). Live cells were defined as Annexin V−/PI−, and Annexin V−/PI+ as necrosis.

U87 GBM cells = assay: XTT cell viability assay on U87; format: cell-based, Human; conditions: 48 hours; Doxorubicin up to 50 μg/mL
Procedure: Cell cultures—Human glioblastoma A172 (ATCC®CRL-1620™) was cultured in DMEM (01-055-1A, Biological Industries, Israel) and U87MG (U87; ATCC®HTB-14™) in EMEM (01-058-1A; Biological Industries, Israel). Both media were supplemented with 10% fetal bovine serum (FBS, 04-127-1A, Biological Industries, Israel), 1% Pen-Strep, 1% L-Glutamine and 0.02% plasmocin (i.e., complete medium). Cells were incubated at 37° C. in a humidified atmosphere containing 5% CO2—95% air. Serum free media (SFM) was composed of DMEM/F12 (01-170-1A; Biological Industries, Israel), including all the supplements above except for FBS. Neurosphere media for A172 was composed of SFM with 2% B-27; Neurosphere media for U87 was serum-free EMEM without B27. For Glioblastoma stem cells (GSCs) cultures all human materials were used in accordance with the policies of the Henry Ford Hospital Institutional Review Board. Generation of GSCs from fresh GBM specimens and their characterization have been recently described. […]
Cell viability assays—Cells were seeded in 96-well plates at density of 2×10^4 per well (100 μL/well) in SFM (for A172) or complete medium (for U87) and were incubated at 37° C. overnight to allow attachment. […] Absorbance was recorded by a Synergy H1 hybrid reader photometer (BioTek) at 490 nm with 650 nm of reference wavelength. […]

COc1cccc2c1C(=O)c1c(O)c3c(c(O)c1C2=O)C[C@@](O)(C(=O)CO)C[C@@H]3O[C@H]1C[C@H](N)[C@H](O)[C@H](C)O1 [Doxorubicin]
necrotic cells (A172 cells; methanol control 3.4%): 23.8%
cell apoptosis (A172 cells; vehicle control 8.0%): 60.6%
activity on the U87 cell line (U87 GBM cells): only moderately active on this cell line
